# Laboratory results from patent US8324427B2, “Substances analogous to MK8383 and agricultural and horticultural disease control agents” (Meiji Seika Kaisha, Ltd., priority 2008, dated 2012).
# How the values were obtained:
# [1] = Evaluation of photostability (residual ratio after exposure to light); format: physicochemical; settings: dry film exposed to sunlight lamp 24 hr, 25° C., humidity 60%, 30,000 lux, UV 300 to 400 μW/cm^2; HPLC; 0 hr = 100%
# Description: The compounds obtained in Examples 1 to 3 were dissolved in acetone, and the concentration of the compounds was adjusted to 200 μg/mL (100 μg/mL for the compound of Example 3) to give test solutions. The photostability was determined by measuring the residual ratio of compound after exposure to light. The residual ratio was calculated by the following method. The test solution (500 μL) was dispensed in a glass Petri dish having a diameter of 5 cm, and the solvent was removed by evaporation under light shielding conditions to form a dry film. The dry film was exposed to a sunlight lamp within a chamber (temperature 25° C., humidity 60%) and was recovered 24 hr after the start of the exposure. The exposed film was washed with 500 μL of methanol and was analyzed by HPLC (manufactured by Nihon Waters K.K.). The residual ratio (concentration ratio after the elapse of each hour when the residual ratio at 0 hr was presumed to be 100%) was calculated by regarding the peak area as the concentration of the compound.
# Botrytis cinerea [2] = assay: Evaluation of control effect (preventive value) on cabbage leaf discs; format: in vivo; settings: 100 ppm test solution sprayed on cabbage leaf discs; Botrytis cinerea spore inoculation; three days after the infection
# Description: The compounds obtained in Examples 1 to 3 were dissolved in acetone to bring the concentration of the compounds to 1 mg/mL. Ten-fold diluted Neoesterin (manufactured by KUMIAI CHEMICAL INDUSTRY CO., LTD.) (1 μL) was added to 20 μL of the solutions. Further, 180 μL of deionized water was added thereto to regulate the concentration to 100 ppm to prepare test solutions. The control effect was measured by measuring the preventive value of each of the test solutions. The preventive value was calculated by the following method. At the outset, leaves cut by a leaf punch off from the leaves at the third and fourth stages of cabbage were allowed to stand still on a multi-well plate. An appropriate amount of the test solution was sprayed followed by air drying. Next, a spore suspension (2.0×10^5 cells/mL) of Botrytis cinerea was prepared as an inoculating microorganism liquor and was inoculated by spraying in an amount of 20 mL per 7 to 10 multi-well plate. Infection with Botrytis cinerea was carried out in a light shielding chamber (temperature 21° C., humidity about 100%), and the preventive value was calculated three days after the infection. […] 0; No pathogenesis was found. 1; Slight pathogenesis was found. 2; Control effect was found as compared with untreated plot, although diseases were developed. 3; Phathogenesis equivalent to that in untreated plot was found. [formula]
# Botrytis cinerea [3] = assay: Antimicrobial activity test (extension of hypha); format: cell-based; parameters: key to the marks not given beside the values; settings: final concentration 12.5 ppm, 3 days
# Leptosphaeria nodorum = assay: Antimicrobial activity test (extension of hypha); format: cell-based; parameters: key to the marks not given beside the values; settings: final concentration 12.5 ppm, 3 days
# Rhizoctonia solani = assay: Antimicrobial activity test (extension of hypha); format: cell-based; parameters: key to the marks not given beside the values; settings: final concentration 12.5 ppm, 3 days
# Pyricularia oryzae = format: cell-based; parameters: key to the marks not given beside the values; settings: final concentration 12.5 ppm, 3 days
# [4] = tested on: Colletotrichum lagenarium; assay: Antimicrobial activity test (extension of hypha); format: cell-based; parameters: key to the marks not given beside the values; settings: final concentration 12.5 ppm, 3 days
# Alternaria kikutiana = assay: Antimicrobial activity test (extension of hypha); format: cell-based; parameters: key to the marks not given beside the values; settings: final concentration 12.5 ppm, 3 days
# Cercospora beticola = assay: Antimicrobial activity test (extension of hypha); format: cell-based; parameters: key to the marks not given beside the values; settings: final concentration 12.5 ppm, 3 days
SMILES,Residual ratio after 24 hr [1] [%],Preventive value (Botrytis cinerea [2]),Inhibition of extension (Botrytis cinerea [3]),Inhibition of extension (Leptosphaeria nodorum),Inhibition of extension (Rhizoctonia solani),Inhibition of extension (Pyricularia oryzae),Inhibition of extension [4],Inhibition of extension (Alternaria kikutiana),Inhibition of extension (Cercospora beticola)
"C/C=C(\C)[C@H]1[C@@H](/C=C/C=C/C(=O)O)[C@H]2[C@@H]([C@H]3C[C@]31C)[C@@H](O)CC[C@@H]2C [Compound of Example 1, (2E,4E)-5-{(1aR,2R,3S,3aS,4S,7S,7aS,7bR)-2-[(E)-but-2-en-2-yl]-decahydro-7-hydroxy-1a,4-dimethyl-1H-cyclopropa[a]naphthalen-3-yl}penta-2,4-dienoic acid]",100,92,–,–,–,–,–,–,–
"C/C=C(\C)[C@H]1[C@@H](/C=C/C=C/C(=O)O)[C@H]2[C@@H](C[C@@H]1C)[C@@H](O)CC[C@@H]2C [Compound of Example 2, (2E,4E)-5-{(1S,4S,4aS,5S,6R,7S,8aR)-6-[(E)-but-2-en-2-yl]-decahydro-1-hydroxy-4,7-dimethylnaphthalen-5-yl}penta-2,4-dienoic acid]",108,100,–,–,–,–,–,–,–
"C/C=C(/C)[C@H]1[C@@H](/C=C/C=C/C(=O)O)[C@H]2[C@@H](C[C@@H]1C)[C@@H](O)CC[C@@H]2C [Compound of Example 3, (2E,4E)-5-{(1S,4S,4aS,5S,6R,7S,8aR)-6-[(Z)-but-2-en-2-yl]-decahydro-1-hydroxy-4,7-dimethylnaphthalen-5-yl}penta-2,4-dienoic acid]",95,100,+++,++,+++,++,++,++,+++
